The values below come from ChEMBL document CHEMBL1629476, “Synthesis and biological evaluation of aminoketones” (2010).

Assay type in all cases: functional
The test system of one experiment is Staphylococcus aureus. Kind of experiment: Antibacterial activity against Staphylococcus aureus after 16 hrs by serial dilution method.
The test system of the next experiment is Pseudomonas aeruginosa. In words: Antibacterial activity against Pseudomonas aeruginosa after 16 hrs by serial dilution method.
A further experiment relates to Escherichia coli. In words: Antibacterial activity against Escherichia coli after 16 hrs by serial dilution method.
The next experiment concerns Bacillus subtilis. In words: Antibacterial activity against Bacillus subtilis after 16 hrs by serial dilution method.

In brackets after ≈: the same amount, converted by molar mass.

On to `COc1ccc(F)c(C(Nc2ccc(F)cc2F)C2CCCCC2=O)c1` (stereo not drawn), for which the MIC in the experiment with Staphylococcus aureus is 3.12 mg/L (≈ 8.6 µM); with Pseudomonas aeruginosa it was 1.61 mg/L (≈ 4.44 µM); against Escherichia coli it was 1.61 mg/L (≈ 4.44 µM); in the experiment with Bacillus subtilis, 1.61 mg/L (≈ 4.44 µM).
With `CC(C)(C)c1ccc(NC(c2ccccc2)C2CCCCC2=O)cc1` (stereo not drawn), the minimum inhibitory concentration (MIC) against Staphylococcus aureus was found to be 6.25 mg/L (≈ 18.6 µM); against Pseudomonas aeruginosa, 6.25 mg/L (≈ 18.6 µM); with Escherichia coli, 12.5 mg/L (≈ 37.3 µM); in the experiment on Bacillus subtilis, 6.25 mg/L (≈ 18.6 µM).
As for `O=C1CCCCC1C(Nc1ccc(F)cc1F)c1ccc(F)cc1` (stereo not drawn), the MIC with Staphylococcus aureus, against Pseudomonas aeruginosa, in the experiment with Escherichia coli and in the experiment with Bacillus subtilis was 1.61 mg/L (≈ 4.84 µM) throughout.
`N#Cc1ccc(NC(c2ccccc2Cl)C2CCCCC2=O)cc1` (stereo not drawn): the MIC was determined as 3.12 mg/L (≈ 9.22 µM) in the experiment with Staphylococcus aureus, 1.61 mg/L (≈ 4.76 µM) in the experiment on Pseudomonas aeruginosa, 1.61 mg/L (≈ 4.76 µM) in the experiment with Escherichia coli and 1.61 mg/L (≈ 4.76 µM) against Bacillus subtilis.
For `O=C1CCCCC1C(Nc1ccc(F)c(F)c1)c1ccccc1F` (stereo not drawn), the minimal inhibitory concentration (MIC) with Staphylococcus aureus came to 3.12 mg/L (≈ 9.37 µM); against Pseudomonas aeruginosa it was 1.61 mg/L (≈ 4.84 µM); against Escherichia coli, 1.61 mg/L (≈ 4.84 µM); against Bacillus subtilis, 1.61 mg/L (≈ 4.84 µM).
Consider `C=CCOc1ccccc1C(Nc1cccc(F)c1)C1CCCCC1=O` (stereo not drawn), for which the minimum inhibitory concentration (MIC) in the experiment with Staphylococcus aureus was 6.25 mg/L (≈ 17.7 µM); in the experiment with Pseudomonas aeruginosa it was 6.25 mg/L (≈ 17.7 µM); in the experiment with Escherichia coli, 3.12 mg/L (≈ 8.84 µM); in the experiment on Bacillus subtilis it was 3.12 mg/L (≈ 8.84 µM).
For `COc1cccc(NC(c2cccc(C)c2O)C2CCCCC2=O)c1` (stereo not drawn), the MIC in the experiment with Staphylococcus aureus, in the experiment on Pseudomonas aeruginosa, in the experiment with Escherichia coli and in the experiment on Bacillus subtilis was 1.61 mg/L (≈ 4.75 µM) each time.
For the compound `CCc1ccc(C(Nc2cc(F)c(F)c(F)c2)C2CCCCC2=O)cc1` (stereo not drawn), the MIC in the experiment with Staphylococcus aureus, in the experiment on Pseudomonas aeruginosa, in the experiment on Escherichia coli and against Bacillus subtilis was 12.5 mg/L (≈ 34.6 µM) throughout.
Regarding `CCc1ccc(C(Nc2ccc(C)c([N+](=O)[O-])c2)C2CCCCC2=O)cc1` (stereo not drawn), the minimal inhibitory concentration (MIC) stood at 6.25 mg/L (≈ 17.1 µM) in the experiment with Staphylococcus aureus, 25 mg/L (≈ 68.2 µM) against Pseudomonas aeruginosa, 6.25 mg/L (≈ 17.1 µM) against Escherichia coli and 6.25 mg/L (≈ 17.1 µM) in the experiment with Bacillus subtilis.
With `O=C1CCCCC1C(Nc1cccc2ccccc12)c1cc2ccccc2o1` (stereo not drawn), the MIC against Staphylococcus aureus stood at 3.12 mg/L (≈ 8.46 µM); in the experiment with Pseudomonas aeruginosa, 1.61 mg/L (≈ 4.37 µM); against Escherichia coli, 1.61 mg/L (≈ 4.37 µM); against Bacillus subtilis, 3.12 mg/L (≈ 8.46 µM).
Regarding `Cc1cc2cc(NC(c3ccncc3)C3CCCCC3=O)ccc2[nH]1` (stereo not drawn), the minimum inhibitory concentration (MIC) in the experiment with Staphylococcus aureus came to 3.12 mg/L (≈ 9.37 µM); against Pseudomonas aeruginosa it was 1.61 mg/L (≈ 4.84 µM); in the experiment with Escherichia coli, 1.61 mg/L (≈ 4.84 µM); in the experiment on Bacillus subtilis, 1.61 mg/L (≈ 4.84 µM).
For the compound `CO/N=C(\C(=O)N[C@@H]1C(=O)N2C(C(=O)O)=C(CSc3nc(=O)c(O)nn3C)CS[C@H]12)c1csc(N)n1` [CEFTRIAXONE], the MIC with Staphylococcus aureus came to 3.12 mg/L (≈ 5.63 µM); in the experiment with Pseudomonas aeruginosa, 1.61 mg/L (≈ 2.91 µM); with Escherichia coli, 1.61 mg/L (≈ 2.91 µM); in the experiment on Bacillus subtilis, 1.61 mg/L (≈ 2.91 µM).
